Several values for one entry are separate records, joined by “and”; a condition that tells them apart may be missing. Equal values may be shown once.
Columns and labels:
LS174T PSMA+ cells = assay: Cell uptake and internalization assay; assay type: cell-based, human
Protocol: LS174T human colon carcinoma cells transfected with human PSMA were provided by Dr. Sandra Heskamp (Radboudumc, Nijmegen, The Netherlands). RPMI-1640 media supplemented with 2 mM glutamine, 10% fetal bovine serum (FBS), and 0.3 mg/mL G418 (Geneticin, Sigma Aldrich, Burlington, MA, USA) was used to culture the cells. PC-3-Pip and PC-3-Flu cells were received from Prof. Martin G. Pomper (John Hopkins University, Baltimore, MD, USA).
LS174T cells were seeded (1.2 × 10^6 cells/well) and cultured to confluency 24 h prior to the experiments. […] Blocking experiments were also performed using a 50-fold excess of either PSMA-617 or 3p-C-NETA-ePSMA-16. The media was removed, and wells were then rinsed twice with PBS at rt. To each well, we added 2 mL of the radioactive compound, which was incubated at 37 °C for 2 h. Internalization assay: the media containing the radioactive compound was removed from each well, followed by two washes with 1 mL cold PBS. Glycine buffer (1 mL, 50 mM glycine, 100 mM NaCl, pH 2.8) was immediately added to the wells prior to incubation at rt for 10 min. The glycine wash and an additional wash were collected into counting tubes (membrane-bound fraction). NaOH (1 mL, 1 M) was added to each well for 15 min at rt. The internalized fraction (lysate) and an additional NaOH wash were collected in the same tubes. Data were normalized to the added dose per 1,000,000 cells (AD/10^6 cells) and represented as counts per minute (CPM).

[1] = system: PSMA+ LS174T tumor xenografts; assay: SPECT/CT imaging in LS174T tumor-bearing mice; assay type: in vivo, mouse; conditions: 1 h p.i.
Protocol: (§1) We housed 8–10 weeks old male BALB/c nude mice (BALB/cAnN Rj-Nude; Janvier Labs, Le Genest-Saint-Isle, France) in individually ventilated cages (Blue line IVC, 2 mice per cage). Sterile standard conditions were employed with the presence of cage enrichment and unlimited access to water and animal chow (Sniff GmbH). Acclimatization was realized 1 week before the beginning of the experiments. Mice were subcutaneously inoculated in their right flank with LS174T cells (4.0 × 10^6) diluted in 100 µL of cell suspension. Tumors grew to an average volume of 217.8 ± 9.4 mm^3 in 7 days (average weight of 217 ± 14.4 mg), and mice were grouped non-blinded to afford homogenous tumor size distribution intra-groups. […] All experiments were in accordance with the guidelines of the Revised Dutch Act on Animal Experimentation (WOD).
At 1 and 24 h p.i., mice were placed under 2% isoflurane/O2 anesthesia on a heated bed and imaged in a dedicated small-animal PET/SPECT/CT scanner (VECTor5CT scanner, MILabs B.V., Utrecht, The Netherlands) equipped with a high sensitivity pinhole collimator (XXUHS-M, 3.00 mm pinhole diameter). […] The CT and registered attenuation-corrected SPECT images were analyzed using IMALYTICS Preclinical 3.0 (Gremse-IT GmbH, Aachen, Germany).

[2] = system: PSMA+ LS174T tumor xenografts; assay: Ex vivo biodistribution in LS174T tumor-bearing BALB/c nude mice; set-up: species or system mouse
Protocol: as §1
Mice (n = 4/group) were euthanized via cervical dislocation at 1, 4, and 24 h post-injection (p.i.). A block group (n = 4) containing a 50-fold excess of 3p-C-NETA-ePSMA-16 was also included in the study (euthanized at 4 h p.i.). Tissues were collected in tubes, weighted, and counted in the gamma counter.

[3] = LogD7.4 shake-flask method; assay type: physicochemical; conditions: n-octanol/PBS pH 7.4, n = 3
Protocol: The distribution coefficient (LogD7.4) was determined by a shake-flask method in triplicate. […] The mixture was vortexed vigorously and then centrifuged at 5000× g for 15 min for phase separation. Samples of the two phases (3 × 10 μL) were taken out and measured using a PerkinElmer Wizard 2 γ-counter. LogD7.4 values were calculated using the following equation: LogD7.4 = log [(counts in octanol phase)/(counts in aqueous phase)] [34].

[4] = Transchelation/challenge study with excess EDTA; assay type: physicochemical; conditions: 37 °C, 24 h
Protocol: Samples were analyzed by iTLC at 1, 4, and 24 h after incubation to determine the percentage (%) of intact radioligand [16].

recombinant human PSMA = molecular target: T1, recombinant human PSMA (Homo sapiens, UniProt Q04609); assay: fluorescence-based NAALADase enzymatic assay; assay type: biochemical; conditions: for IC50: rhPSMA, NAAG substrate, three assays in triplicate, read-out: IC50 (affinity to PSMA)
T1 construct: purchased R&D systems, Abingdon, UK
T1 sequence (Q04609 whole entry): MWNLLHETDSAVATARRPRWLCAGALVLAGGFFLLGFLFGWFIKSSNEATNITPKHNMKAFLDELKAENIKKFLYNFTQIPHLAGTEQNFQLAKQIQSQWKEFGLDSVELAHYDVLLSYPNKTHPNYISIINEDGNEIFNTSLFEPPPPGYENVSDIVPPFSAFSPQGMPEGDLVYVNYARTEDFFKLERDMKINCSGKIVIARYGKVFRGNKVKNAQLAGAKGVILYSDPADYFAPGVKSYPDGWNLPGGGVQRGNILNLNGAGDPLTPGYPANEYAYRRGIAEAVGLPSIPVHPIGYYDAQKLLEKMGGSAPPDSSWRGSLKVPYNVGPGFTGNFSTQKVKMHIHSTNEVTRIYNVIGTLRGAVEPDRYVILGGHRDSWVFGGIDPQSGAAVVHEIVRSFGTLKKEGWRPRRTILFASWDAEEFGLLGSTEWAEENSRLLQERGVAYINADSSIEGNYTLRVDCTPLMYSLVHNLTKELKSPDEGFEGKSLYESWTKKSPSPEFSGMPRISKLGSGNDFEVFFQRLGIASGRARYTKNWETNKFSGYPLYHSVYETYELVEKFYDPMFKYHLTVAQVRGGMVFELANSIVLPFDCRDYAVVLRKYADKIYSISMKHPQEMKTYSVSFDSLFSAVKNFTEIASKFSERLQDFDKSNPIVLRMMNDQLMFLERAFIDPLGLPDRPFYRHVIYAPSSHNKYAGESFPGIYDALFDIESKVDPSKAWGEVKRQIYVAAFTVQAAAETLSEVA
Protocol: The assay buffer (50 mM HEPES, 0.1 M NaCl, pH 7.5) was used to dilute the recombinant human PSMA (rhPSMA, R&D systems, Abingdon, UK) to 0.4 µg/mL, as well as the enzymatic substrate Ac-Asp-Glu (NAAG) (40 μM in assay buffer). 3p-C-NETA-ePSMA-16 and an internal reference, PSMA-617, were dissolved in assay buffer at concentrations ranging from 10^−5 to 10^−12 M. 6.25 µL of the compound were incubated with 6.25 µL of the substrate to which 12.5 µL of rhPSMA solution was added, and incubated for 1 h at 37 °C in 384-well black polystyrene microplates. Next, 25 µL of a working solution of the Amplex Red glutamic acid kit (ThermoFisher, Bleiswijk, The Netherlands) was added and incubated at 37 °C for 30 min to measure glutamate released. A HIDEX Sense Optical System (HIDEX, Goedereede, The Netherlands) was used to measure the fluorescence, with excitation set at 535 nm and emission at 590 nm. Assays were performed in triplicate and as three separate replicates. Data were normalized and analyzed using a one-site total binding regression algorithm from GraphPad Prism 9 (GraphPad Software, Boston, MA, USA).

[5] = Storage stability of the unlabeled compound; assay type: physicochemical
[6] = radiolabeled with 88Y, 177Lu and 205/206Bi; cited from earlier work
[7] = 4 h p.i., block (50-fold excess unlabeled)

Structure (SMILES): CC(C)C[C@H](NC(=O)[C@H](Cc1ccccc1)NC(=O)[C@H](CC(=O)O)NC(=O)CCC(=O)Nc1ccc(CCCC(CN2CCN(CC(=O)[O-])CCN(CC(=O)[O-])CC2)N(CC(=O)[O-])CC(=O)O)cc1)[C@@H](O)CC(=O)NCCCCCC(=O)NCCCC[C@H](NC(=O)N[C@@H](CCC(=O)O)C(=O)O)C(=O)O.[111In+3] (some centres unmarked) [[^111In]In-3p-C-NETA-ePSMA-16]
- total cell uptake (LS174T PSMA+ cells): 1.41 ± 0.20 % ID/10^6 cells
- internalized fraction (LS174T PSMA+ cells; 10^−9 M, 2 h, 37 °C): 0.50 ± 0.16 % AD/10^6 cells
- membrane-bound fraction (LS174T PSMA+ cells; 10^−9 M, 2 h, 37 °C): 0.90 ± 0.05 % AD/10^6 cells
- cell uptake in the blocked group (LS174T PSMA+ cells; 50-fold excess of unlabeled compound): no uptake
- tumor signal in SPECT/CT [1]: faint signal
- Blood uptake ([2]; 1 h p.i.): 0.26 ± 0.19 % ID/g
- Bone uptake ([2]; 1 h p.i.): 0.20 ± 0.05 % ID/g
- Heart uptake ([2]; 1 h p.i.): 0.15 ± 0.05 % ID/g
- Intestines uptake ([2]; 1 h p.i.): 0.59 ± 0.13 % ID/g
- Kidney uptake ([2]; 1 h p.i.): 26.70 ± 2.12 % ID/g
- Liver uptake ([2]; 1 h p.i.): 0.20 ± 0.03 % ID/g
- Lung uptake ([2]; 1 h p.i.): 0.45 ± 0.10 % ID/g
- Muscle uptake ([2]; 1 h p.i.): 0.13 ± 0.09 % ID/g
- Pancreas uptake ([2]; 1 h p.i.): 0.23 ± 0.05 % ID/g
- Prostate uptake ([2]; 1 h p.i.): 1.08 ± 0.41 % ID/g
- Skin uptake ([2]; 1 h p.i.): 0.46 ± 0.15 % ID/g
- Spleen uptake ([2]; 1 h p.i.): 1.28 ± 0.49 % ID/g
- Stomach uptake ([2]; 1 h p.i.): 0.31 ± 0.21 % ID/g
- Tumor uptake ([2]; 1 h p.i.): 1.62 ± 0.55 % ID/g
- Blood uptake ([2]; 4 h p.i.): 0.01 ± 0.01 % ID/g
- Bone uptake ([2]; 4 h p.i.): 0.03 ± 0.00 % ID/g
- Heart uptake ([2]; 4 h p.i.): 0.02 ± 0.00 % ID/g
- Intestines uptake ([2]; 4 h p.i.): 0.60 ± 0.28 % ID/g
- Kidney uptake ([2]; 4 h p.i.): 11.62 ± 0.62 % ID/g
- Liver uptake ([2]; 4 h p.i.): 0.07 ± 0.01 % ID/g
- Lung uptake ([2]; 4 h p.i.): 0.06 ± 0.01 % ID/g
- Muscle uptake ([2]; 4 h p.i.): 0.04 ± 0.00 % ID/g
- Pancreas uptake ([2]; 4 h p.i.): 0.03 ± 0.00 % ID/g
- Prostate uptake ([2]; 4 h p.i.): 0.12 ± 0.07 % ID/g
- Skin uptake ([2]; 4 h p.i.): 0.24 ± 0.15 % ID/g
- Spleen uptake ([2]; 4 h p.i.): 0.12 ± 0.01 % ID/g
- Stomach uptake ([2]; 4 h p.i.): 0.05 ± 0.02 % ID/g
- Tumor uptake ([2]; 4 h p.i.): 0.89 ± 0.58 % ID/g
- Blood uptake [2, 7]: 0.01 ± 0.00 % ID/g
- Bone uptake [2, 7]: 0.03 ± 0.01 % ID/g
- Heart uptake [2, 7]: 0.02 ± 0.00 % ID/g
- Intestines uptake [2, 7]: 0.68 ± 0.02 % ID/g
- Kidney uptake [2, 7]: 9.53 ± 1.66 % ID/g
- Liver uptake [2, 7]: 0.07 ± 0.01 % ID/g
- Lung uptake [2, 7]: 0.05 ± 0.01 % ID/g
- Muscle uptake [2, 7]: 0.02 ± 0.01 % ID/g
- Pancreas uptake [2, 7]: 0.02 ± 0.01 % ID/g
- Prostate uptake [2, 7]: 0.07 ± 0.02 % ID/g
- Skin uptake [2, 7]: 0.13 ± 0.02 % ID/g
- Spleen uptake [2, 7]: 0.05 ± 0.01 % ID/g
- Stomach uptake [2, 7]: 0.15 ± 0.10 % ID/g
- Tumor uptake [2, 7]: 0.12 ± 0.04 % ID/g
- Bone uptake ([2]; 24 h p.i.): 0.02 ± 0.00 % ID/g
- Heart uptake ([2]; 24 h p.i.): 0.01 ± 0.00 % ID/g
- Intestines uptake ([2]; 24 h p.i.): 0.04 ± 0.02 % ID/g
- Kidney uptake ([2]; 24 h p.i.): 4.27 ± 0.87 % ID/g
- Liver uptake ([2]; 24 h p.i.): 0.03 ± 0.00 % ID/g
- Lung uptake ([2]; 24 h p.i.): 0.02 ± 0.00 % ID/g
- Muscle uptake ([2]; 24 h p.i.): 0.01 ± 0.00 % ID/g
- Pancreas uptake ([2]; 24 h p.i.): 0.01 ± 0.00 % ID/g
- Prostate uptake ([2]; 24 h p.i.): 0.04 ± 0.01 % ID/g
- Skin uptake ([2]; 24 h p.i.): 0.10 ± 0.06 % ID/g
- Spleen uptake ([2]; 24 h p.i.): 0.03 ± 0.00 % ID/g
- Stomach uptake ([2]; 24 h p.i.): 0.01 ± 0.00 % ID/g
- Tumor uptake ([2]; 24 h p.i.): 0.12 ± 0.02 % ID/g
- logD [3]: −2.95 ± 0.19
- intact radioligand in transchelation challenge [4]: 93.2 ± 0.7% and > 90%

Structure (SMILES): O=C(O)CC[C@H](NC(=O)N[C@@H](CCCCNC(=O)[C@H](Cc1ccc2ccccc2c1)NC(=O)[C@H]1CC[C@H](CNC(=O)CN2CCN(CC(=O)O)CCN(CC(=O)O)CCN(CC(=O)O)CC2)CC1)C(=O)O)C(=O)O [PSMA-617, reference compound]
- IC50 (recombinant human PSMA): 0.78 ± 0.3 nM

Structure (SMILES): CC(C)CC(NC(=O)C(Cc1ccccc1)NC(=O)C(CC(=O)O)NC(=O)CCC(=O)Nc1ccc(CCCC(CN2CCN(CC(=O)O)CCN(CC(=O)O)CC2)N(CC(=O)O)CC(=O)O)cc1)C(O)CC(=O)NCCCCCC(=O)NCCCCC(NC(=O)NC(CCC(=O)O)C(=O)O)C(=O)O (stereo not drawn) [3p-C-NETA-ePSMA-16, EuK(Ahx-Sta-Phe-Asp-3p-C-NETA)]
- IC50 (recombinant human PSMA): 4.61 ± 1.33 nM
- IC50 relative to reference PSMA-617 (fold higher IC50 / lower affinity) (recombinant human PSMA; vs PSMA-617): 5 fold
- storage stability ([5]; stored as a lyophilized powder): > 1 year
- storage stability ([5]; stored as an aqueous solution): > 6 months

Structure (SMILES): O=C(O)CN1CCN(CC(=O)O)CCN(CC(CCCc2ccc([N+](=O)[O-])cc2)N(CC(=O)O)CC(=O)O)CC1 (centres unmarked) [3p-C-NETA]
- stability in serum in vitro [6]: highly stable in serum in vitro for up to 11 days

From publication PMC10301001, “Radiochemical and Biological Evaluation of 3p-C-NETA-ePSMA-16, a Promising PSMA-Targeting Agent for Radiotheranostics” (Pharmaceuticals, 2023)
